Measured values reported in patent US10011585B2, “Factor XIa inhibitors” (Merck Sharp & Dohme Corp., priority 2014, dated 2018).
pIC50: −log10 of the molar value. Like-named read-outs stand apart in the source and are kept apart here.

Legend:
human Factor XIa = biological target: T1, human Factor XIa (Homo sapiens, UniProt P03951); experiment: Factor XIa Assay; format: biochemical; conditions: read-out: F11a IC50
T1 construct: purified human Factor XIa; purchased Sekisui Diagnostics
Experimental: The effectiveness of a compound of the present invention as an inhibitor of Coagulation Factor XIa can be determined using a relevant purified serine protease, and an appropriate synthetic substrate. The rate of hydrolysis of the chromogenic or fluorogenic substrate by the relevant serine protease was measured both in the absence and presence of compounds of the present invention. Assays were conducted at room temperature or at 37° C. […] A decrease in the rate of fluorescence change in the presence of inhibitor is indicative of enzyme inhibition. Such methods are known to one skilled in the art. […]
Factor XIa determinations were made in 50 mM HEPES buffer at pH 7.4 containing 150 mM NaCl, 5 mM CaCl2, and 0.1% PEG 8000 (polyethylene glycol; JT Baker or Fisher Scientific). Determinations were made using purified human Factor XIa at a final concentration of 40 pM (Sekisui Diagnostics) and the synthetic substrate, Z-Gly-Pro-Arg-AFC, TFA salt (Sigma #C0980) at a concentration of 100 μM.
Times required to achieve equilibration between enzyme and inhibitor were determined in control experiments. Initial velocities of product formation in the absence (Vo) or presence of inhibitor (Vi) were measured. Assuming competitive inhibition, and that unity is negligible compared Km/[S], [I]/e, and [I]/e (where [S], [I], and e respectively represent the total concentrations, of substrate, inhibitor and enzyme), the equilibrium constant (Ki) for dissociation of the inhibitor from the enzyme can be obtained from the dependence of Vo/Vi on [I] shown in the following equation.

Human plasma kallikrein = biological target: T2, Human plasma kallikrein (Homo sapiens, UniProt P03952); experiment: Kallikrein Assay; format: biochemical; conditions: Plasma Kallekrein IC50, read-out: PK IC50
T2 construct: yields a heavy chain (371 amino acids) and a light chain (248 amino acids); purchased Enzyme Research Laboratories
Experimental: The effectiveness of a compound of the present invention as an inhibitor of Kallikrein can be determined using a relevant purified serine protease, and an appropriate synthetic substrate. The rate of hydrolysis of the chromogenic or fluorogenic substrate by the relevant serine protease was measured both in the absence and presence of compounds of the present invention. Assays were conducted at room temperature or at 37° C. […] A decrease in the rate of fluorescence change in the presence of inhibitor is indicative of enzyme inhibition. Such methods are known to one skilled in the art. The results of this assay are expressed as the inhibitory constant, Ki.
Kallikrein determinations were made in 50 mM HEPES buffer at pH 7.4 containing 150 mM NaCl, 5 mM CaCl2, and 0.1% PEG 8000 (polyethylene glycol; Fisher Scientific). Determinations were made using purified Human plasma kallikrein at a final concentration of 0.5 nM (Enzyme Research Laboratories) and the synthetic substrate, Acetyl-K—P—R-AFC (Sigma # C6608) at a concentration of […].
Times required to achieve equilibration between enzyme and inhibitor were determined in control experiments. The reactions were performed under linear progress curve conditions and fluorescence increase measured at 405 Ex/510 Em nm. […] IC50 was determined by inflection point from a four parameter logistic curve fit. Ki was calculated using the Cheng Prusoff equation, Ki=IC50/(1+([S]/Km)).

T2 sequence (P03952 391-638 limits assumed): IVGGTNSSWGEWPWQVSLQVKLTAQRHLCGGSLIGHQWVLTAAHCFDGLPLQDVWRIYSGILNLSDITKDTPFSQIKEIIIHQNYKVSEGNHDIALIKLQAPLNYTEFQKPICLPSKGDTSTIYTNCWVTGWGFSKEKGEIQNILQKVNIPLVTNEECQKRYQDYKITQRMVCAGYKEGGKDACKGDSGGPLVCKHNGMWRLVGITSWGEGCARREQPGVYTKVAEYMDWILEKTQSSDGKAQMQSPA
T2 sequence (P03952 20-390 partner limits assumed): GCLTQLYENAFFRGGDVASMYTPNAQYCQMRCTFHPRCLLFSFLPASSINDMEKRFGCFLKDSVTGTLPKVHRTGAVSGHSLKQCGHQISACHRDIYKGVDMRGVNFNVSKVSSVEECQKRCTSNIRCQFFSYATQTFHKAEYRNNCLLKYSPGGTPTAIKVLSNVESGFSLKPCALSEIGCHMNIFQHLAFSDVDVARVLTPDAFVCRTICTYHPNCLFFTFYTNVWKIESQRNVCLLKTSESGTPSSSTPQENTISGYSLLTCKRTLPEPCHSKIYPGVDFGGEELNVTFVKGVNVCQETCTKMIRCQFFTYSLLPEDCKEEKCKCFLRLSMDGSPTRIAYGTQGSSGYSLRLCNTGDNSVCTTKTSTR
T1 sequence (P03951 388-625 limits assumed): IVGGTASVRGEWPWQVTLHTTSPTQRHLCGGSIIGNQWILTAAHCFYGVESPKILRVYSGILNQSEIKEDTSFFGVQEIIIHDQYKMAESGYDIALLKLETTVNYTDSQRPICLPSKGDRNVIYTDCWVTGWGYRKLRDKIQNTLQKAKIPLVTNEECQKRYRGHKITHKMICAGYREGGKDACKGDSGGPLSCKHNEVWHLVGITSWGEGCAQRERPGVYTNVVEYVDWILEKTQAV
T1 sequence (P03951 19-387 partner limits assumed): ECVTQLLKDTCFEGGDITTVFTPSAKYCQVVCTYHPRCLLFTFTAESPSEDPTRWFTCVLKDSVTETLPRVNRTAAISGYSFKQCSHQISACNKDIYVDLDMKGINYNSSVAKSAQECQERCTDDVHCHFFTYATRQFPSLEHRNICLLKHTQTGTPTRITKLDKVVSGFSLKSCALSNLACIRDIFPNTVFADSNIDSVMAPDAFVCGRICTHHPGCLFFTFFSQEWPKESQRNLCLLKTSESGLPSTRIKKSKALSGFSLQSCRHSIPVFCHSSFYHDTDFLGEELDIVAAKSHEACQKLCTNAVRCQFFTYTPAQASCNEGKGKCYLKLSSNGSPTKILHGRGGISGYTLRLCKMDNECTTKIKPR

| Structure (SMILES) | pIC50 (human Factor XIa; Examples 1-19 table) | pIC50 (Human plasma kallikrein; Examples 1-19 table) | pIC50 (human Factor XIa; Examples 20-28 table) | pIC50 (Human plasma kallikrein; Examples 20-28 table) |
| --- | --- | --- | --- | --- |
| O=C(O)c1ccc2[nH]c(C(Cc3ccccc3)c3ccc(-c4c(F)ccc(Cl)c4F)c[n+]3[O-])nc2c1 (racemic) [Example 1, 2-(1-(5-Carboxy-1H-benzo[d]imidazol-2-yl)-2-phenylethyl)-5-(3-chloro-2,6-difluorophenyl)pyridine 1-oxide] | 7.05 | 6.53 |  |  |
| O=C(O)c1ccc2[nH]c(C(Cc3ccccc3)c3ccc(-c4cc(Cl)ccc4-n4cnnn4)c[n+]3[O-])nc2c1 (racemic) [Example 4, 2-(1-(5-Carboxy-1H-benzo[d]imidazol-2-yl)-2-phenylethyl)-5-(5-chloro-2-(1H-tetrazol-1-yl)phenyl)pyridine 1-oxide] | 9.35 | 7.28 |  |  |
| [O-][n+]1cc(-c2cc(Cl)ccc2-n2cnnn2)ccc1C(Cc1ccccc1)c1nc2cc(F)ccc2[nH]1 (racemic) [Example 7, 5-(5-chloro-2-(1H-tetrazol-1-yl)phenyl)-2-(1-(5-fluoro-1H-benzo[d]imidazol-2-yl)-2-phenylethyl)pyridine 1-oxide] | 8.94 | 6.73 |  |  |
| [O-][n+]1cc(-c2c(F)ccc(Cl)c2F)ccc1C(Cc1ccccc1)c1nc2cc(F)ccc2[nH]1 (racemic) [Example 10] | 5.90 |  |  |  |
| N#Cc1ccc2[nH]c(C(Cc3ccccc3)c3ccc(-c4c(F)ccc(Cl)c4F)c[n+]3[O-])nc2c1 (racemic) [Example 13] | 5.73 |  |  |  |
| N#Cc1ccc2[nH]c(C(Cc3ccccc3)c3ccc(-c4cc(Cl)ccc4-n4cnnn4)c[n+]3[O-])nc2c1 (racemic) [Example 16] | 8.88 | 6.82 |  |  |
| N#Cc1ccc(Cl)cc1-c1ccc(C(Cc2ccccc2)c2nc3cc(C(=O)O)ccc3[nH]2)[n+]([O-])c1 (racemic) [Example 17] | 7.42 | 6.47 |  |  |
| O=C(O)c1ccc2nc(C(CC3CC3)c3ccc(-c4cc(Cl)ccc4-n4cnnn4)c[n+]3[O-])[nH]c2c1 (racemic) [Example 24, 2-(1-(5-carboxy-1H-benzo[d]imidazol-2-yl)-2-cyclopropylethyl)-5-(5-chloro-2-(1H-tetrazol-1-yl)phenyl)pyridine 1-oxide] |  |  | 7.85 |  |
| O=C(O)c1ccc2[nH]c(C(Cc3ccccc3)c3ccc(-c4cc(Cl)ccc4C(=O)O)c[n+]3[O-])nc2c1 (racemic) [Example 25] |  |  | 7.27 | 5.56 |
| O=C(O)c1ccc2nc(C(CC(=O)N3CCC3)c3ccc(-c4c(F)ccc(Cl)c4F)c[n+]3[O-])[nH]c2c1 (racemic) [Example 26] |  |  | 5.10 |  |
| O=C(CC(c1nc2ccc(F)cc2[nH]1)c1ccc(-c2cc(Cl)ccc2-n2cnnn2)c[n+]1[O-])N1CCC1 (single isomer, unassigned) [Example 27] |  |  | 7.10 |  |
| O=C(CC(c1nc2ccc(F)cc2[nH]1)c1ccc(-c2cc(Cl)ccc2-n2cnnn2)c[n+]1[O-])N1CCC1 (single isomer, unassigned) [Example 28] |  |  | 7.03 | 5.74 |
| O=C(O)c1ccc2[nH]c(C(Cc3ccccc3)c3ccc(-c4c(F)ccc(Cl)c4F)c[n+]3[O-])nc2c1 (stereo in doubt) [Example 2, (S)-2-(1-(5-Carboxy-1H-benzo[d]imidazol-2-yl)-2-phenylethyl)-5-(3-chloro-2,6-difluorophenyl)pyridine 1-oxide] | 7.34 | 6.74 |  |  |
| O=C(O)c1ccc2[nH]c(C(Cc3ccccc3)c3ccc(-c4c(F)ccc(Cl)c4F)c[n+]3[O-])nc2c1 (stereo in doubt) [Example 3, (R)-2-(1-(5-Carboxy-1H-benzo[d]imidazol-2-yl)-2-phenylethyl)-5-(3-chloro-2,6-difluorophenyl)pyridine 1-oxide] | 6.86 | 6.74 |  |  |
| [O-][n+]1cc(-c2cc(Cl)ccc2-n2cnnn2)ccc1C(Cc1ccccc1)c1nc2cc(F)ccc2[nH]1 (stereo in doubt) [Example 8, (S)-5-(5-chloro-2-(1H-tetrazol-1-yl)phenyl)-2-(1-(5-fluoro-1H-benzo[d]imidazol-2-yl)-2-phenylethyl)pyridine 1-oxide] | 8.88 | 6.91 |  |  |
| [O-][n+]1cc(-c2cc(Cl)ccc2-n2cnnn2)ccc1C(Cc1ccccc1)c1nc2cc(F)ccc2[nH]1 (stereo in doubt) [Example 9, (R)-5-(5-chloro-2-(1H-tetrazol-1-yl)phenyl)-2-(1-(5-fluoro-1H-benzo[d]imidazol-2-yl)-2-phenylethyl)pyridine 1-oxide] | 8.48 | 6.53 |  |  |
| O=C(O)c1ccc2[nH]c([C@@H](Cc3ccccc3)c3ccc(-c4cc(Cl)ccc4-n4cnnn4)c[n+]3[O-])nc2c1 [Example 5, (S)-2-(1-(5-Carboxy-1H-benzo[d]imidazol-2-yl)-2-phenylethyl)-5-(5-chloro-2-(1H-tetrazol-1-yl)phenyl)pyridine 1-oxide] | 8.47 | 6.67 |  |  |
| O=C(O)c1ccc2[nH]c([C@H](Cc3ccccc3)c3ccc(-c4cc(Cl)ccc4-n4cnnn4)c[n+]3[O-])nc2c1 [Example 6, (R)-2-(1-(5-Carboxy-1H-benzo[d]imidazol-2-yl)-2-phenylethyl)-5-(5-chloro-2-(1H-tetrazol-1-yl)phenyl)pyridine 1-oxide] | 9.29 | 7.55 |  |  |
| O=C(O)c1ccc2[nH]c([C@@H](Cc3ccc(F)cc3)c3ccc(-c4c(F)ccc(Cl)c4F)c[n+]3[O-])nc2c1 [Example 11] | 6.84 |  |  |  |
| O=C(O)c1ccc2[nH]c([C@H](Cc3ccc(F)cc3)c3ccc(-c4c(F)ccc(Cl)c4F)c[n+]3[O-])nc2c1 [Example 12] | 6.80 |  |  |  |
| [O-][n+]1cc(-c2cc(Cl)ccc2-n2cnnn2)ccc1[C@H](Cc1ccc(F)cc1)c1nc2cc(F)ccc2[nH]1 [Example 14] | 7.05 | 6.09 |  |  |
| [O-][n+]1cc(-c2cc(Cl)ccc2-n2cnnn2)ccc1[C@@H](Cc1ccc(F)cc1)c1nc2cc(F)ccc2[nH]1 [Example 15] | 8.33 | 6.61 |  |  |
| [O-][n+]1cc(-c2c(-n3cnnn3)ccc(Cl)c2F)ccc1[C@@H](Cc1ccccc1)c1nc2cc(F)ccc2[nH]1 [Example 20, 2-[(1R)-1-{5-[3-chloro-2-fluoro-6-(1H-tetrazol-1-yl)phenyl]-1-oxidopyridin-2-yl}-2-phenylethyl]-5-fluoro-1H-benzimidazole] |  |  | 8.74 | 7.19 |
| [O-][n+]1cc(-c2c(-n3cnnn3)ccc(Cl)c2F)ccc1[C@H](Cc1ccccc1)c1nc2cc(F)ccc2[nH]1 [Example 21, 2-[(1S)-1-{5-[3-chloro-2-fluoro-6-(1H-tetrazol-1-yl)phenyl]-1-oxidopyridin-2-yl}-2-phenylethyl]-5-fluoro-1H-benzimidazole] |  |  | 7.93 | 6.77 |
| NC(=O)c1ccc(Cl)cc1-c1ccc([C@@H](Cc2ccccc2)c2nc3cc(F)ccc3[nH]2)[n+]([O-])c1 [Example 22, (R)-5-(2-carbamoyl-5-chlorophenyl)-2-(1-(5-fluoro-1H-benzo[d]imidazol-2-yl)-2-phenylethyl)pyridine 1-oxide] |  |  | 6.81 |  |
| NC(=O)c1ccc(Cl)cc1-c1ccc([C@H](Cc2ccccc2)c2nc3cc(F)ccc3[nH]2)[n+]([O-])c1 [Example 23, (S)-5-(2-carbamoyl-5-chlorophenyl)-2-(1-(5-fluoro-1H-benzo[d]imidazol-2-yl)-2-phenylethyl)pyridine 1-oxide] |  |  | 6.00 |  |
